Experimental data taken from article PMC6934700, “Structure-Guided Design of a Fluorescent Probe for the Visualization of FtsZ in Clinically Important Gram-Positive and Gram-Negative Bacterial Pathogens” (Scientific Reports, 2019).
Like-named read-outs stand apart in the source and are kept apart here.

Columns and labels:
[1] = target: S. pyogenes (SpyFtsZ) (Streptococcus pyogenes, UniProt Q99YV7); test: Fluorescence anisotropy binding of BOFP to SpyFtsZ; settings: for Kd: 50 mM Tris-HCl (pH 7.6), 50 mM KCl, 0.1 µM BOFP
S. pyogenes (SpyFtsZ), sequence (Q99YV7 entry or part of it): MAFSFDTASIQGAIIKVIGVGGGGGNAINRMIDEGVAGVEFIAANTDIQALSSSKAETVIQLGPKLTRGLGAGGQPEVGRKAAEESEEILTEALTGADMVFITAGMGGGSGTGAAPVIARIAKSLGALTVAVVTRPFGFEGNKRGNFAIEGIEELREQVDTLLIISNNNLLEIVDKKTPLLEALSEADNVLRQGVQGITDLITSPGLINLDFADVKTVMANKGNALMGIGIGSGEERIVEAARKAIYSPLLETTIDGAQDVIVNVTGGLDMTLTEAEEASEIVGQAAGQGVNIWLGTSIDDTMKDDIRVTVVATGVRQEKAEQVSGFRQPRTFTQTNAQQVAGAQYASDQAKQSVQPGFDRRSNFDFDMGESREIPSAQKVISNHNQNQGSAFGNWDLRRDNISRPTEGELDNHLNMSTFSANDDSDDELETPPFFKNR
Description: (§1) Fluorescence anisotropy experiments were performed using an AVIV model ATF105 spectrofluorometer at 15, 25, or 37 °C. In these experiments, bandwidths were set to 4 nm in both the excitation and emission directions, with the excitation and emission wavelengths being set at 488 nm and 510 nm, respectively. BOFP (0.1 µM) was titrated with increasing concentrations (ranging from 0 to 12 µM) of FtsZ in 120 µL of buffer containing 50 mM Tris-HCl (pH 7.6) and 50 mM KCl. After each protein addition, the samples were equilibrated for 3 minutes, whereupon the fluorescence anisotropy was measured.
(§2) In this equation, r0 is the anisotropy of the protein-free compound, r∞ is the anisotropy of the compound in the presence of an infinite concentration of FtsZ, [C]tot is the total concentration of the compound, and [P]tot is the total concentration of protein with each addition. These analyses yielded the equilibrium dissociation constant (Kd) for each binding reaction.
(§3) The binding free energy (ΔG) at temperature T was derived from the corresponding Kd value determined at T using the following relationship:2 ΔG=−RTln(1/Kd)
(§4) The binding enthalpy (ΔH) and entropy (ΔS) were derived from linear fits of the ln(1/Kd) vs. 1/T plots shown in Figs. 3f and 5e using the following relationship:3 ln(1/Kd)=−ΔH/R(1/T)+ΔS/R
(§5) In comparative control experiments, the anisotropy of 0.1 µM BODIPY FL-COOH or BOFP alone or in the presence of SaFtsZ (10 µM), SpyFtsZ (10 µM), KpFtsZ (2 µM), or PaFtsZ (2 µM) was measured at 37 °C in the same buffer described above.

[2] = target: E. coli (EcFtsZ) (Escherichia coli, UniProt P0A9A6); test: Fluorescence anisotropy binding of BOFP to EcFtsZ; settings: for Kd: 50 mM Tris-HCl (pH 7.6), 50 mM KCl, 0.1 µM BOFP
E. coli (EcFtsZ), sequence (P0A9A6 whole entry): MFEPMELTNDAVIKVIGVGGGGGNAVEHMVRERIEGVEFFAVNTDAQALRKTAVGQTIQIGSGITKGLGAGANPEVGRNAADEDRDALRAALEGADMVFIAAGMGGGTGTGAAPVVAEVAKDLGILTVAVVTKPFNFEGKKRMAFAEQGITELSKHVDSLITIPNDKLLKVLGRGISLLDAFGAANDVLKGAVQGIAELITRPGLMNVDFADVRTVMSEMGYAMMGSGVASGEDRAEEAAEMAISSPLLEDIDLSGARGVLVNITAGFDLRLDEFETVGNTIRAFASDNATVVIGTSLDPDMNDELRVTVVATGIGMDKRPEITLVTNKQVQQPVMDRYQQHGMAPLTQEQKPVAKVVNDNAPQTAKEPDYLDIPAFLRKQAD
Description: as §1, §2, §3, §4

[3] = target: T1, S. aureus (SaFtsZ) (Staphylococcus aureus, UniProt P0A031); test: biochemical; type: binding
T1 construct: 6xHis (C); made in house; host or cells: E. coli BLR (DE3), pET-22b(+)
T1 sequence (P0A031 1-390): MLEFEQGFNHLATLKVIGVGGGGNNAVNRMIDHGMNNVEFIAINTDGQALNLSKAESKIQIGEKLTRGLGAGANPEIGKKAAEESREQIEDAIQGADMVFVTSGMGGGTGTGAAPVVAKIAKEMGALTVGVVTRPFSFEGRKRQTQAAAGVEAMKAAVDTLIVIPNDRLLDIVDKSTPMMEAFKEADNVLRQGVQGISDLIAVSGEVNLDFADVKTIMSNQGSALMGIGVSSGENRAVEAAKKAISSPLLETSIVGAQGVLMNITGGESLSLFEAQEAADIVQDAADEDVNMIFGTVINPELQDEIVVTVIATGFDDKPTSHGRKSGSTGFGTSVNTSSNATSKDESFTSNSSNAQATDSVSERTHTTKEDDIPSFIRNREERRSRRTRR
Description: as §1, §2, §3, §4
The impact of guanosine nucleotide and magnesium on the binding of BOFP to SaFtsZ was assessed at 37 °C in the same buffer described above. In these studies, the anisotropy of 0.1 µM BOFP alone or in the presence of 10 µM SaFtsZ was measured, with the latter also being measured in the presence of 0.1 mM GMPCPP (a non-hydrolyzable GTP analog), 10 mM MgCl2, or both.
as §5

[4] = calculated at T = 310 K (37 °C) from Kd
[5] = from linear fit of ln(1/Kd) vs. 1/T

CC1=CC(C)=[N+]2C1=Cc1ccc(CCC(=O)OCC(Oc3ccc(F)c(C(N)=O)c3F)c3nc(-c4ccc(C(F)(F)F)cc4)c(Br)o3)n1[B-]2(F)F (stereo not shown) [BOFP]
Kd ([1]; 15 °C, read-out: Kd - 15 °C): 910 ± 60 nM | Kd ([1]; 25 °C, read-out: Kd - 25 °C): 1310 ± 80 nM | Kd ([1]; 37 °C, read-out: Kd - 37 °C): 1550 ± 80 nM | ΔG [1, 4]: -8.2 ± 0.1 kcal/mol | ΔH [1, 5]: -4.3 ± 1.1 kcal/mol | Kd ([2]; 15 °C, read-out: Kd - 15 °C): 220 ± 30 nM | Kd ([2]; 25 °C, read-out: Kd - 25 °C): 280 ± 20 nM | Kd ([2]; 37 °C, read-out: Kd - 37 °C): 440 ± 40 nM | ΔG [2, 4]: -9.0 ± 0.1 kcal/mol | ΔH [2, 5]: -5.6 ± 0.8 kcal/mol | Effect of both GMPCPP and MgCl2 on anisotropy of SaFtsZ-bound BOFP ([3]; 0.1 µM BOFP, 10 µM SaFtsZ, 0.1 mM GMPCPP and 10 mM MgCl2, 37 °C): modest increase in the anisotropy | Effect of GMPCPP alone or MgCl2 alone on anisotropy of SaFtsZ-bound BOFP ([3]; 0.1 µM BOFP, 10 µM SaFtsZ, 0.1 mM GMPCPP or 10 mM MgCl2, 37 °C): neither GMPCPP alone (at 0.1 mM) nor MgCl2 alone (at 10 mM) has a significant effect | Kd ([3]; 15 °C, 50 mM Tris-HCl (pH 7.6), 50 mM KCl, 0.1 µM BOFP, read-out: Kd - 15 °C): 880 ± 80 nM | Kd ([3]; 25 °C, 50 mM Tris-HCl (pH 7.6), 50 mM KCl, 0.1 µM BOFP, read-out: Kd - 25 °C): 1660 ± 120 nM | Kd ([3]; 37 °C, 50 mM Tris-HCl (pH 7.6), 50 mM KCl, 0.1 µM BOFP, read-out: Kd - 37 °C): 3140 ± 130 nM | ΔG [3, 4]: -7.8 ± 0.1 kcal/mol | ΔH [3, 5]: -10.2 ± 0.3 kcal/mol | ΔS [3, 5]: −7.8 ± 1.0 cal/mol•K | Kd ([3]; range over 15 to 37 °C, read-out: Kd range): 900 to 3100 nM
